Assay [1] relates to miniTERRA (RNA, G4) UUAGGGUUAGGGUUAGGGUUAGGGUUA
In words: fluorescent indicator displacement (ThT). The conditions noted are these: pH 7.4, 34 °C, 5 µM RNA, 5 µM ThT displaced.

Assay [2] has as its system Negative control (RNA, single strand) UUACCCUUACCCUUACCCUUACCCUUA
As to the kind of experiment: ThT fluorescence light-up. Particulars: pH 7.4, 34 °C, 5 µM RNA, 5 µM ThT highest tested.

The test system of assay [3] is miniTERRA (RNA, G4) UUAGGGUUAGGGUUAGGGUUAGGGUUA
As to the kind of experiment: ThT fluorescence light-up. The conditions noted are these: pH 7.4, 34 °C, 5 µM RNA, 5 µM ThT.

Turning to `NCCOc1cc(C(=O)Nc2cc(OCCN)c3ccccc3n2)nc(C(=O)Nc2cc(OCCN)c3ccccc3n2)c1`, the IC50 (as a rule, the concentration that inhibits the measured activity by half) in assay [1] (K+ (100 mM phosphate)) amounted to 17.23 ± 0.28 µM; in assay [1] (Na+ (100 mM phosphate)), 19.29 ± 0.25 µM.
For `Cc1ccc2c(c1)sc(-c1ccc(N(C)C)cc1)[n+]2C`, the binding entry in assay [2] (K+ (100 mM phosphate)) is “no”; in assay [2] (Na+ (100 mM phosphate)) it was “no”; in assay [3] (K+ (100 mM phosphate)), “yes”; in assay [3] (Na+ (100 mM phosphate)), “yes”.
